These results are taken from US20090264415A2 (priority 2004, published 2009).

Some results are limits rather than exact numbers.

This assay relates to peripheral blood mononuclear cells (PBMC) stimulated with allogeneic PBMC or EBV-transformed human B cells (RPMI1788). The assay can be described thus: Mixed lymphocyte reaction (MLR) assay. Type of assay: cell-based. As to conditions: Homo sapiens, RPMI-1788; MLR assay of example 319; read-out: MLR IC50. In a few lines: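 Compounds, held as 10 mM DMSO stocks and diluted in culture medium, were added to PBMC stimulated by 30 Gy-irradiated allogeneic PBMC or RPMI1788 cells. Proliferation was read as [3H]-thymidine uptake (1 μCi, final 16 h) after 5 days at 37° C. Inhibition was derived from cpm.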
For the compound `C[C@@H]1CN(C(=O)OC(C)(C)C)CCN1c1nc(N)nc2ccc(-c3ccc(F)cc3)nc12` [Example 481, (R)-4-[2-amino-6-(4-fluorophenyl)-pyrido[3,2-d]pyrimidin-4-yl]-3-methylpiperazine-1-carboxylic acid tert-butyl ester], the 50% inhibitory concentration (IC50) is greater than 10 µM.

For `C[C@@H]1CN(C(=O)COc2ccc(Cl)cc2)CCN1c1nc(N)nc2ccc(-c3ccc(F)cc3)nc12` [Example 482, (R)-2-amino-4-[4-(4-chlorophenoxyacetyl)-2-methylpiperazin-1-yl]-6-(4-fluorophenyl)-pyrido[3,2-d]pyrimidine], the IC50 was found to be 0.5 µM.

Turning to `CC(C)(C)OC(=O)N1C[C@@H]2C[C@H]1CN2c1nc(N)nc2ccc(-c3ccc(F)cc3)nc12` [Example 483, (S,S)-5-[2-amino-6-(4-fluorophenyl)-pyrido[3,2-d]pyrimidin-4-yl]-2,5-diaza-bicyclo[2.2.1]heptane-2-carboxylic acid tert-butyl ester], the IC50 is 6.1 µM.

For `Nc1nc(N2C[C@@H]3C[C@H]2CN3C(=O)COc2ccc(Cl)cc2)c2nc(-c3ccc(F)cc3)ccc2n1` [Example 484, (S,S)-1-{5-[2-amino-6-(4-fluorophenyl)-pyrido[3,2-d]pyrimidin-4-yl]-2,5-diaza-bicyclo[2.2.1]hept-2-yl}-2-(4-chlorophenoxy)-ethanone], the IC50 is 2.6 µM.

`Nc1nc(NC2CCN(C(=O)COc3ccccc3)CC2)c2nc(-c3ccc(F)cc3)ccc2n1` [Example 485, 2-amino-4-[1-(phenoxyacetyl)piperid-4-ylamino]-6-(4-fluorophenyl)-pyrido[3,2-d]pyrimidine]: the IC50 is 0.3 µM.

In the case of `C[C@H]1CN(C(=O)OCc2ccccc2)CCN1c1nc(N)nc2ccc(-c3ccc(F)cc3)nc12` [Example 486, (S)-4-[2-amino-6-(4-fluorophenyl)-pyrido[3,2-d]pyrimidin-4-yl]-3-methylpiperazine-1-carboxylic acid benzyl ester], the IC50 was determined as 0.8 µM.

As for `C[C@@H]1CN(C(=O)c2ccccc2)CCN1c1nc(N)nc2ccc(-c3ccc(F)cc3)nc12` [Example 487, (R)-2-amino-4-(4-benzoyl-2-methylpiperazin-1-yl)-6-(4-fluorophenyl)-pyrido[3,2-d]pyrimidine], the IC50 is 7.5 µM.

Regarding `C[C@H]1CN(C(=O)COc2ccc(Cl)cc2)CCN1c1nc(N)nc2ccc(-c3ccc(F)cc3)nc12` [Example 489, (S)-2-amino-4-[4-(4-chlorophenoxyacetyl)-2-methylpiperazin-1-yl]-6-(4-fluorophenyl)-pyrido[3,2-d]pyrimidine], the IC50 was 0.005 µM.

As to `Nc1nc(N2CCN(C(=O)CC(=O)Nc3ccc(Cl)cc3)CC2)c2nc(-c3ccc(F)cc3)ccc2n1` [Example 490, 2-amino-4-[4-(4-chlorophenylcarbamoyl-acetyl)piperazin-1-yl]-6-(4-fluorophenyl)-pyrido[3,2-d]pyrimidine], the IC50 was 0.34 µM.

For `Nc1nc(N2CCN(C(=O)COc3ccc(Cl)cc3)CC2)c2nc(Cl)ccc2n1` [Example 492, 2-amino-4-(N-(4-chlorophenoxyacetyl)-piperazin-1-yl)-6-chloro-pyrido[3,2-d]pyrimidine], the IC50 is 0.08 µM.

In the case of `CCOc1ccc(-c2ccc3nc(N)nc(N4CCN(C(=O)COc5ccc(Cl)cc5)CC4)c3n2)cc1Cl` [Example 493, 2-amino-4-[N-(4-chlorophenoxyacetyl)-piperazin-1-yl]-6-(3-chloro-4-ethoxyphenyl)-pyrido(3,2-d)pyrimidine], the IC50 is 0.057 µM.

With `CCOc1ccc(-c2ccc3nc(N)nc(N4CCN(C(=O)COc5ccc(Cl)cc5)CC4)c3n2)cc1` [Example 494, 2-amino-4-[N-(4-chlorophenoxyacetyl)-piperazin-1-yl]-6-(4-ethoxyphenyl)-pyrido(3,2-d)pyrimidine], the IC50 was determined as 0.033 µM.

Take `CSc1ccc(-c2ccc3nc(N)nc(N4CCN(C(=O)COc5ccc(Cl)cc5)CC4)c3n2)cc1` [Example 495, 2-amino-4-[N-(4-chlorophenoxyacetyl)-piperazin-1-yl]-6-(4-methylthiophenyl)-pyrido(3,2-d)pyrimidine]: the IC50 is 0.022 µM.

The IC50 is the concentration needed to halve the response being measured.
